Experimental data as given in the CombiSolv-Exp solvation set (Vermeire and Green 2021).

Experiment: solvent given as SMILES

CCCCC
Conditions	solvation free energy, 298 K [kcal/mol]
in BrC(Br)C(Br)Br	-2.06
in Brc1ccccc1	-2.95
in C1=Cc2ccccc2C1	-2.75
in C1CCCCC1	-3.34
in C1CCOC1	-3.22
in C1COCCO1	-2.6
in C=CCCCC	-3.34
in C=CCCCCCC	-3.24
in C=CCCCCCCCC	-3.16
in C=CCCCCCCCCCCCCCC	-2.88
in CC1COC(=O)O1	-1.59
in CC#N	-2.15
in CC(=O)CC(C)C	-2.86
in CC(=O)N(C)C	-2.29
in CC(=O)O	-2.36
in CC(=O)c1ccccc1	-2.43
in CC(C)=O	-2.73
in CC(C)CC(C)(C)C	-3.24
in CC(C)CCCC(C)CCCC(C)CCCCC(C)CCCC(C)CCCC(C)C	-2.8
in CC(C)CCO	-2.82
in CC(C)O	-2.6
in CC(C)OC(C)C	-3.35
in CCBr	-3.45
in CCC#N	-2.59
in CCC(C)=O	-2.82
in CCC(C)O	-2.65
in CCCC#N	-2.48
in CCCC(=O)OCC	-3
in CCCC(C)=O	-2.89
in CCCCC(CC)COC(=O)CCCCC(=O)OCC(CC)CCCC	-2.65
in CCCCC(CC)COC(=O)c1ccccc1C(=O)OCC(CC)CCCC	-2.47
in CCCCCC	-3.36
in CCCCCC(C)=O	-2.92
in CCCCCCC	-3.27
in CCCCCCCC	-3.24
in CCCCCCCCC	-3.18
in CCCCCCCCC=CCCCCCCCC(=O)OCC(COC(=O)CCCCCCCC=CCCCCCCCC)OC(=O)CCCCCCCC=CCCCCCCCC	-2.77
in CCCCCCCCCC	-3.16
in CCCCCCCCCCCC	-3.05
in CCCCCCCCCCCCCC	-2.9
in CCCCCCCCCCCCCCCC	-2.93
in CCCCCCCCCOC(=O)c1ccccc1C(=O)OCCCCCCCCC	-2.55
in CCCCCCCCN(CCCCCCCC)CCCCCCCC	-2.81
in CCCCCCCCO	-2.7
in CCCCCCCO	-2.66
in CCCCCCO	-2.68
in CCCCCCOC(C)=O	-2.96
in CCCCCN(CCCCC)CCCCC	-2.98
in CCCCCO	-2.65
in CCCCCl	-3.22
in CCCCN(C=O)CCCC	-2.59
in CCCCN(CCCC)CCCC	-2.9
in CCCCO	-2.7
in CCCCOC(=O)c1ccccc1C(=O)OCCCC	-2.59
in CCCCOC(C)=O	-2.94
in CCCCOCCCC	-3.19
in CCCO	-2.58
in CCN1CCCC1=O	-2.25
in CCN(CC)C(C)=O	-2.48
in CCN(CC)CC	-3.31
in CCNC(C)=O	-2.35
in CCNC=O	-2.11
in CCO	-2.51
in CCOC(=O)c1ccccc1C(=O)OCC	-2.11
in CCOC(C)=O	-2.85
in CCOCC	-3.3
in CCOCCOCCOCC	-2.79
in CCOc1ccccc1	-2.82
in CN1CCCC1=O	-2.18
in CN1CCCCC1=O	-2.16
in CN1CCN(C)C1=O	-1.88
in CN(C)C=O	-2.18
in CN(C)P(=O)(N(C)C)N(C)C	-2.39
in CNC(C)=O	-2.17
in CNC=O	-1.87
in CO	-2.29
in COC(C)=O	-2.66
in COCCO	-2.16
in COCCOCCOCCOCCOC	-2.2
in COc1ccccc1	-2.76
in CS(C)=O	-1.41
in Cc1ccc(C)cc1	-3.16
in Cc1cccc2ccccc12	-2.63
in Cc1cccc(C)c1	-3.11
in Cc1cccc(O)c1	-2.28
in Cc1ccccc1	-3.15
in Cc1ccccn1	-2.82
in ClC(Cl)(Cl)Cl	-3.32
in ClC(Cl)C(Cl)Cl	-2.77
in ClC(Cl)Cl	-3.23
in ClCCCl	-2.77
in ClCCl	-3.07
in Clc1cccc2ccccc12	-2.5
in Clc1ccccc1	-3.14
in FC(F)(F)C(F)(F)C(F)(F)C(F)(F)C(F)(F)C(F)(F)C(F)(F)C(F)(F)F	-2.06
in FC(F)(F)C(F)(F)C(F)(F)C(F)(F)C(F)(F)C(F)(F)F	-2.15
in Fc1ccccc1	-3.25
in ICI	-1.67
in Ic1ccccc1	-2.61
in N#CCCCCC#N	-1.32
in N#CCc1ccccc1	-1.99
in N#Cc1ccccc1	-2.48
in NC=O	-0.44
in NCCO	-0.27
in Nc1ccccc1	-1.89
in O=C1CCCCC1	-2.73
in O=C1CCCO1	-1.72
in O=C(O)C(Cl)Cl	-2.12
in O=CN1CCOCC1	-1.51
in O=Cc1ccco1	-1.8
in OC1CCCCC1	-2.46
in OCCO	-0.34
in OCCOCCO	-0.86
in OCCc1ccccc1	-2.12
in OCc1ccccc1	-2.06
in OCc1ccco1	-1.67
in S=C=S	-3.29
in c1ccc2ncccc2c1	-2.54
in c1ccccc1	-3.15
in c1ccncc1	-2.64
